The test system of one assay is Bacteria. Nature of the assay: Inhibition of bacterial RNA polymerase holoenzyme formation assessed as inhibition of interaction between beta subunit CH domain and sigma factor at 500 uM relative to control.
Assay [1] can be described thus: Inhibition of Bacillus subtilis N-terminal SmBiT NanoLuc/C-terminal LgBiT NanoLuc fused full-length SigA tagged RNA polymerase beta subunit CH-domain (220 to 315 residues)/sigma factor (unknown origin) protein-protein interaction by split luciferase assay.
Assay [2] concerns Streptococcus pneumoniae. Put plainly: Antibacterial activity against Streptococcus pneumoniae assessed as reduction in bacterial growth incubated for 16 to 20 hrs by broth microdilution method. It counts as functional. The conditions noted are these: time 16-20 hrs. For orientation: Dilution methods test growth across graded concentrations, often in twofold steps.
The nature of assay [3]: Inhibition of NusB-NusE (unknown origin) protein protein interaction. On the set-up: species or system Bacteria.
Assay [4] deals with Bacillus subtilis. Put plainly: Antibacterial activity against Bacillus subtilis EU168 measured after 18 hrs. Type of assay: functional.
In assay [5] the test system is Staphylococcus aureus. Put plainly: Antibacterial activity against community-acquired methicillin-resistant Staphylococcus aureus USA300 measured after 18 hrs. Type of assay: functional.
The test system of assay [6] is Staphylococcus aureus. Nature of the assay: Antibacterial activity against Staphylococcus aureus. It counts as functional.
The subject of assay [7] is Staphylococcus aureus. Put plainly: Antibacterial activity against methicillin-resistant Staphylococcus aureus. It counts as functional.
The test system of assay [8] is Staphylococcus aureus. Put plainly: Antibacterial activity against vancomycin-resistant Staphylococcus aureus. It counts as functional.
Assay [9] is described as follows: Inhibition of ribo(C)10 stimulated Escherichia coli AR120 Rho ATPase activity preincubated for 2 mins in presence of ribo(C)10 followed by ATP addition and measured for 90 sec by [gamma-32P]ATP based liquid scintillation counting method.
The nature of assay [10]: Inhibition of ribo(C)10 stimulated Escherichia coli AR120 Rho ATPase activity preincubated for 2 mins in absence of ribo(C)10 followed by ATP addition and measured for 90 sec by [gamma-32P]ATP based liquid scintillation counting method.
Assay [11] is described as follows: Binding affinity to NusB (unknown origin) assessed as dissociation constant. On the set-up: species or system Bacteria.
Assay [12] concerns Bacillus subtilis. Nature of the assay: Antibacterial activity against Bacillus subtilis assessed as inhibition of bacterial growth at 200 uM incubated for 10 sec under shaking condition relative to control. The following applies: 10 s. Type of assay: functional.
A further assay concerns Escherichia coli. Put plainly: Antibacterial activity against Escherichia coli assessed as inhibition of bacterial growth at 200 uM incubated for 10 sec under shaking condition relative to control. It counts as functional. The conditions noted are these: 10 s.
Assay [13] is described as follows: Inhibition of Escherichia coli RNA polymerase/sigma factor 70 (unknown origin) protein-protein interaction incubated for 30 mins by ELISA. (ELISA stands for enzyme-linked immunosorbent assay.)
The test system of assay [14] is Streptococcus pneumoniae. Put plainly: Antibacterial activity against Streptococcus pneumoniae CIP103566 measured after 24 hrs by broth microdilution method. Type of assay: functional.
The next assay concerns Bacillus anthracis. Put plainly: Antibacterial activity against Bacillus anthracis 9131 measured after 24 hrs by broth microdilution method. It counts as functional.
The test system of a further assay is Bacteroides sp. Nature of the assay: Antibacterial activity against Bacteroides sp. measured after 24 hrs by broth microdilution method. Type of assay: functional.
Assay [15] can be described thus: Inhibition of poly(C) dependent Escherichia coli DW319 Rho ATPase activity.
The next assay concerns Neisseria gonorrhoeae. Put plainly: Antibacterial activity against Neisseria gonorrhoeae. It counts as functional.
The next assay has as its system Moraxella catarrhalis. Nature of the assay: Antibacterial activity against Moraxella catarrhalis. It counts as functional.

pIC50, pKd, pKi: −log10 of the molar value. ≈ marks a conversion by molar mass, not a printed value. Where only a bound is given, the exact number is not on record here.

The term inhibition denotes the percentage by which the read-out fell short of the control. As usually defined, the pIC50 is −log10 of the IC50, conventionally taken in molar units. Usually MIC stands for the lowest concentration that inhibits growth of the organism. With `Nc1ccccc1Sc1ccc(C(=O)c2ccccc2C(=O)O)cc1[N+](=O)[O-]`, the inhibition with Bacteria is 80%. For the same compound, in [1], the pIC50 was 5.19. For the same compound, the MIC in the assay on Streptococcus pneumoniae [2] was found to be 256 µg/mL (≈ 649 µM).
In assay [3], `COc1ccc(-c2cc(-c3ccc(OC)c(OC)c3)nc(NS(=O)(=O)c3ccc(NC(C)=O)cc3)n2)c(OC)c1` showed a pIC50 of 5.21.
As to `C[C@]12CC[C@@H](O)CC1CCC1C2CC[C@](C)(C(=O)O)C1/C=C1/Nc2ccccc2C1=O` (some centres undefined), the MIC against Bacillus subtilis [4] was ≤ 50 µM; in the assay on Staphylococcus aureus [5] it was ~100 µM (≈ 42.4 µg/mL). In addition, in the assay on Bacteria, the inhibition was found to be 80%.
Turning to `O=[N+]([O-])c1ccc(O)c(CNc2ccccc2C#Cc2ccccc2)c1`, the minimal inhibitory concentration (MIC) against Staphylococcus aureus [6], in the assay with Staphylococcus aureus [7] and against Staphylococcus aureus [8] was 0.25 µg/mL (≈ 0.726 µM) in each case.
Broadly, the pKi is the Ki on a negative log10 scale, so that one unit is a factor of ten. On to `C=C1CCO[C@]2([C@@H](O)[C@@](C)(O)CO)NC(=O)[C@@]1(O)NC2=O` [BICOZAMYCIN], for which the negative-log Ki (pKi) in assay [9] is 5.55; in assay [10] it was 4.59.
In the case of `CCNC(=O)Nc1ccc(OCCCCOc2ccc(NC(=O)NCC)cc2)cc1`, in assay [3], the pIC50 was 4.70.
What is called pKd is the Kd on a negative log10 scale, so that one unit is a factor of ten. Regarding `C#Cc1cccc(/N=C/c2cc([N+](=O)[O-])ccc2O)c1`, the pIC50 in [3] was ~4.46. For the same compound, in [11], the pKd was ~5.82. Moreover, in the assay on Staphylococcus aureus [6], inhibition of growth (MIC) required 8 µg/mL (≈ 30 µM).
As for `N=C(N)N/N=C/c1ccc(OC/C=C\COc2ccc(/C=N/NC(=N)N)cc2)cc1`, the inhibition at 200 µM in the assay on Bacillus subtilis [12] and in the assay with Escherichia coli was 100% in each case.
Consider `CC(C)(C)c1ccccc1NCc1cc([N+](=O)[O-])ccc1O`, for which the MIC in the assay on Staphylococcus aureus [6] was determined as 1 µg/mL (≈ 3.33 µM); with Staphylococcus aureus [7], 0.25 µg/mL (≈ 0.832 µM); in the assay on Staphylococcus aureus [8], 0.25 µg/mL (≈ 0.832 µM).
As to `COc1cccc(/C=C/c2cc(O)ccc2[N+](=O)[O-])c1`, the MIC with Staphylococcus aureus [6] amounted to 2 µg/mL (≈ 7.37 µM); against Staphylococcus aureus [7], 0.25 µg/mL (≈ 0.922 µM); in the assay with Staphylococcus aureus [8], 0.25 µg/mL (≈ 0.922 µM).
As for `O=C(O)c1ccccc1C(=O)c1ccc(Sc2ccc(Cl)c(Cl)c2)c([N+](=O)[O-])c1`, in the assay with Streptococcus pneumoniae [2], the minimum inhibitory concentration (MIC) stood at 8 µg/mL (≈ 17.8 µM).
With `O=[N+]([O-])c1ccc(O)c(/C=N/c2cccc(Cl)c2)c1`, the values for the MIC in the assay on Staphylococcus aureus [6], in the assay on Staphylococcus aureus [7] and against Staphylococcus aureus [8] were 2 µg/mL (≈ 7.23 µM), 0.25 µg/mL (≈ 0.904 µM) and 0.25 µg/mL (≈ 0.904 µM), respectively.
`C=CCN1C(=O)/C(=C/c2cc(C)n(-c3cccc(C(=O)O)c3)c2C)SC1=S` showed a pIC50 in assay [13] of 5.74.
As for `CN1C(=O)/C(=C\c2ccc(-c3cccc(C(=O)O)c3)o2)SC1=S`, in assay [13], the pIC50 is 5.52.
The compound `C=CCN1C(=O)/C(=C\c2ccc(-c3cccc(C(=O)O)c3)o2)SC1=S` had a pIC50 in [13] of 5.70. In addition, the MIC in the assay with Streptococcus pneumoniae [14] was determined as 2 µg/mL (≈ 5.38 µM); against Bacillus anthracis, 0.1 µg/mL (≈ 0.269 µM); with Bacteroides sp. it was 1 µg/mL (≈ 2.69 µM).
Regarding `C#Cc1cccc(NCc2cc([N+](=O)[O-])cc(Br)c2O)c1`, the MIC in the assay on Staphylococcus aureus [7] and in the assay with Staphylococcus aureus [8] was 0.25 µg/mL (≈ 0.72 µM) in each case.
Regarding `O=C1N(Cc2ccccc2)CCC1(CCN1CCC(Nc2nc3ccccc3n2Cc2ccc(F)cc2)CC1)Cc1ccccc1` (centres undefined), in assay [15], the pIC50 is 4.60. The MIC in the assay on Neisseria gonorrhoeae and in the assay on Moraxella catarrhalis was 2.5 µM (≈ 1.54 µg/mL) in each case.

For the origin of these results see ChEMBL document CHEMBL5532700, “Inhibition of bacterial RNA polymerase function and protein-protein interactions: a promising approach for next-generation antibacterial therapeutics” (RSC Med Chem, 2024).
